Results reported in patent US11161845B2, “Pyrrolopyridine-aniline compounds for treatment of dermal disorders” (Nflection Therapeutics, Inc., priority 2017, dated 2021).

Assays:
[1] = test system: p-ERK in human cutaneous neurofibroma (cNF) explants; assay: Human cutaneous neurofibroma explant protocol, p-ERK suppression; type: cell-based
Excerpt: Study Objectives: The primary objective was to assess the efficacy of a topically-formulated compound described herein in suppressing p-ERK, a downstream biomarker of RAS/MAPK signaling in neurofibroma explants.
Primary dermal neurofibromas or cutaneous neurofibromas were obtained from patients with clinical or genetic diagnoses of NFL. […] Specimens were identified under the direction of the Principal Investigator and placed in cell proliferation media (DMEM/F12 containing penicillin/streptomycin (0.1%); fungizone (40 μg/mL); B27 (without vitamin A).
Specimens were identified under the direction of the Principal Investigator
Specimens were chopped into 2 mm fragments and placed in 24-well plates containing cell proliferation media (DMEM/F12 containing penicillin/streptomycin (0.1%); fungizone (40 μg/mL); B27 (without vitamin A) and submerged in media with drug. For topical gel application, samples were placed in 96 well plates with epidermal surface exposed to air.
The gel formulation was 1% hydroxypropyl cellulose in DMSO/PEG 400 1:1 (v/v). Harvested tissue was bisected and with half snap frozen and half fixed in 10% formalin and paraffin embedded for further analysis.
Samples were harvested at 4 hours with half snap frozen in liquid nitrogen and half fixed in 10% formalin and paraffin embedded for histologic analysis.
Western Blot analysis: For immunoblotting, total skin biopies were lysed in lysis buffer and run on Western blots. Antibodies used for immunoblotting included rabbit anti-phospho-p44/42 MAPK (1:3000, Cell Signaling) and rabbit anti-p44/42 MAPK (1:3000, Cell Signaling), rabbit anti-phospho-Mek1/2 (1:3000, Cell Signaling), mouse anti-actin (1:5000, Sigma-Aldrich), donkey anti-mouse IgG conjugated to horseradish peroxidase (HRP; 1:40,000, Amersham Biosciences) and goat anti-rabbit IgG conjugated HRP (1:40,000, Jackson ImmunoResearch).
Immunohistochemistry: Immunohistochemistry was performed on 5 pm paraffin sections. Antigen retrieval with enzyme treatment (1:1000) using standard protocols. Antibodies used were rabbit p-ERK (Cell Signaling, 4307S, 1:100). Bond Polymer Refine anti-rabbit HRP Detection (Leica Biosystems) was used according to manufacturer's protocol. Sections were then counterstained with hematoxylin, dehydrated and film coverslipped using a TissueTek-Prisma and Coverslipper (Sakura).
Data Analysis: Semi-quantative Western blot was used to assess differences in p-ERK in samples treated with a compound described herein compared to vehicle control.

hERG channel protein = biological target: T1, hERG channel protein (Homo sapiens, UniProt Q12809); assay: hERG screening assay (Predictor hERG FP); type: binding; settings: fluorescence polarization tracer displacement
T1 construct: purchased ThermoFisher PV5365
Experimental: hERG screening was conducted using a procedure similar to the procedure described by Piper et al. (Piper, D. R. et al., Assay Drug Dev. Technol. 2008, 6(2):213-223). The Predictor hERG FP assay (available from ThermoFisher, cat. no. PV5365) is a homogenous, fluorescence polarization biochemical-based format utilizing a membrane fraction containing hERG channel protein (Predictor hERG Membrane) and a high affinity, red-fluorescent hERG channel ligand (Predictor hERG Tracer Red). When the Predictor hERG Tracer ligand is bound to the hERG channel it produces high fluorescence polarization values. Compounds that bind to the hERG channel protein (competitors) displace the Predictor hERG Tracer Red resulting in decreased fluorescence polarization values.
Test compounds were solubilized in DMSO at 100× (or greater) of the desired starting concentration. Screening was conducted with a final concentration of 1% DMSO. For 10-point titrations, 3-fold serial dilutions were performed from the starting concentrations. The assay buffer used was 25 mM HEPES (pH 7.5), 15 mM KCl, 1 mM MgCl2, and 0.05% Pluronic F-127 (available from Sigma-Aldrich).
Predictor hERG membranes were stored as a 2× stock at −80° C. Each membrane lot was titrated to identify the concentration of membranes required to obtain ˜70% bound tracer. Before setting up the assay the membranes were thawed in a 37° C. water bath and stored at room temperature. To avoid light scatter caused by large membrane particulates the membranes were sonicated until a homogeneous solution free of particulates is obtained. […]
384 well untreated low-volume polystyrene microplates (Corning Cat. #4511) were used for the assay. […] The assay plate was read on a fluorescence plate reader (Tecan Safire^2) and the data was analyzed. […]
Assay blank control wells consisted of Predictor hERG Membranes and Assay Buffer. The blank wells were used for background subtraction of raw parallel and perpendicular fluorescence values prior to the calculation of polarization values. […]

MDCK-MDR1 cells = assay: in vitro; settings: dog, MDCK-MDR1, 1 h, 5 μM
Experimental: (§1) MDCK-MDR1 is a stable-transfected cell line originating from MDCK cells, with over-expression of human MDR1 gene. The cell line is widely used for the identification and characterization of P-gp substrates and inhibitors.
(§2) MDCK-MDR1 cells were plated into 96-well Millipore Millicell-96 plates at 7,500 cells/75 μL/well and incubated for three days at 37° C. with 5% CO2. Cells were washed with Hank's Balanced Salt Solution (HBSS) with 5 mM HEPES for 30 minutes before starting the experiment. Test compound solutions were prepared by diluting DMSO stock into HBSS buffer, resulting in a final DMSO concentration of 0.1%. Prior to the experiment, cell monolayer integrity was verified by […] electrical resistance (TEER). Transport experiment was initiated by adding test compounds to the apical (75 μL) or basal (250 μL) side. Transport plates were incubated at 37° C. in a humidified incubator with 5% CO2. Samples were taken from the donor and acceptor compartments after one hour and analyzed by liquid chromatography with tandem mass spectrometry (LC/MS/MS).
(§3) Digoxin was used as reference control.
(§4) Apparent permeability (Papp) values were calculated using the following equation: Papp=(dQ/dt)/A/Co; where dQ/dt is the initial rate of amount of test compound transported across cell monolayer, A is the surface area of the filter membrane, and Co is the initial concentration of the test compound, calculated for each direction using a 4-point calibration curve by LC/MS/MS.
(§5) Net flux ratio between the two directional transports was calculated by the following equation: Ratio=Papp, B-A/Papp, A-B; where Papp, B-A and Papp, A-B represent the apparent permeability of test compound from the basal-to-apical and apical-to-basal side of the cellular monolayer, respectively.
(§6) Recovery was calculated based on the compound concentration at the end of the experiment, compared to that at the beginning of the experiment, adjusted for volumes.
(§7) A net flux ratio greater than two was considered a positive result for substrate determination. […] If the addition of a known P-gp inhibitor to the experiment reduces the net flux ratio by a significant amount (more than 50% reduction or reduces the ratio to close to unity), it is likely that the compound tested is a P-gp substrate.

P-gp (human MDR1) = assay: in vitro; settings: dog; for Papp A→B at 1 h, 5 μM / Papp B→A at 1 h, 5 μM: MDCK-MDR1, Papp
Experimental: as §1, §2, §3, §4, §5, §6, §7

T1 sequence (Q12809 whole entry): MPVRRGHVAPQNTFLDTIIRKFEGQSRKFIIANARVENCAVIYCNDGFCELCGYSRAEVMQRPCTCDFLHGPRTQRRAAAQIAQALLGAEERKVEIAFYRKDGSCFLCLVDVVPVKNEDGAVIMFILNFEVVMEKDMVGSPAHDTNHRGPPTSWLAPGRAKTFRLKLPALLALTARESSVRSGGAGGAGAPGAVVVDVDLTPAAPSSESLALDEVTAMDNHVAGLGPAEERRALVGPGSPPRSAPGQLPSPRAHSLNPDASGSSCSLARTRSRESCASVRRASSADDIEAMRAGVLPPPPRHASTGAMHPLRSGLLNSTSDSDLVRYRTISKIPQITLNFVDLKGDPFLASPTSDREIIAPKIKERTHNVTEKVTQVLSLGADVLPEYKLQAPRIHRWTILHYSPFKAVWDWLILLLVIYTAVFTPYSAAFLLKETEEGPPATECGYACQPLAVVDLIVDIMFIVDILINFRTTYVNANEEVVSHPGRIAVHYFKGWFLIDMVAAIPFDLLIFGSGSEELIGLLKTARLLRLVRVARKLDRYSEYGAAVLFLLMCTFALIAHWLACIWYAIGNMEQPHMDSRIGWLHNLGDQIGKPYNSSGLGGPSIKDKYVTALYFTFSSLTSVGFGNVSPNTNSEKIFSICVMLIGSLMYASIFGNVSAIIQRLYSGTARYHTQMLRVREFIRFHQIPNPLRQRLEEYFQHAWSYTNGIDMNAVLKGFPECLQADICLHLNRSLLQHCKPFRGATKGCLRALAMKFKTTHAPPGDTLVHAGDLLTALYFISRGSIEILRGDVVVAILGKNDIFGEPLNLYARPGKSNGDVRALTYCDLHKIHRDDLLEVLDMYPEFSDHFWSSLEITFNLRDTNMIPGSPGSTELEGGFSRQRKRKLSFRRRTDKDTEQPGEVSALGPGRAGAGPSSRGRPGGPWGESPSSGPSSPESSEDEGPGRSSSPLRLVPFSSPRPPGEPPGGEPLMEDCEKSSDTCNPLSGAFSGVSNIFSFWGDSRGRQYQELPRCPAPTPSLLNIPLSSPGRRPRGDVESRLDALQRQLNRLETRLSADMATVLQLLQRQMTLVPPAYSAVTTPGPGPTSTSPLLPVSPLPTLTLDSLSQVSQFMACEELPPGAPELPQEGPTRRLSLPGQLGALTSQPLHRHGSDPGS

Compound: Cn1c(Nc2ccc(I)cc2F)c(C(=O)NOCCO)c2cccnc21 [Example 2, 2-((2-Fluoro-4-iodophenyl)amino)—N-(2-hydroxyethoxy)-1-methyl-1H-pyrrolo[2,3-b]pyridine-3-carboxamide]
- suppression of p-ERK ([1]; FIG. 2, 500 nM, explant submerged in media, 4 hours): suppression of p-ERK
- dose-dependent suppression of p-ERK ([1]; FIG. 3, explant submerged in media, 4 hours): dose-dependent suppression of p-ERK
- p-ERK after application of a topical gel ([1]; FIG. 4, gel 1% hydroxypropyl cellulose in DMSO/PEG 400 1:1, 4 hours): p-ERK was suppressed
- suppression of pERK ([1]; FIGS. 1a and 1b, explant submerged in media, 4 hours): suppression of pERK
- IC50 (hERG channel protein): > 30 µM
- Papp, A-B Value (MDCK-MDR1 cells): 47.8 ×10⁻⁶ cm/s
- Papp, B-A Value (MDCK-MDR1 cells): 41.3 ×10⁻⁶ cm/s
- Recover Rate (MDCK-MDR1 cells): 92%
- efflux ratio at 1 h, 5 μM (P-gp (human MDR1); MDCK-MDR1): 0.9
- Papp A→B at 1 h, 5 μM (P-gp (human MDR1); A-B Mean): 49.1 ×10⁻⁶ cm/s
- Papp A→B at 1 h, 5 μM (P-gp (human MDR1); A-B Value): 50.5 ×10⁻⁶ cm/s
- Papp B→A at 1 h, 5 μM (P-gp (human MDR1); B-A Mean): 41.8 ×10⁻⁶ cm/s
- Papp B→A at 1 h, 5 μM (P-gp (human MDR1); B-A Value): 42.3 ×10⁻⁶ cm/s
